Here are results for twelve compounds from paper PMC6713091, “Exploring new structural features of the 4-[(3-methyl-4-aryl-2,3-dihydro-1,3-thiazol-2-ylidene)amino]benzenesulphonamide scaffold for the inhibition of human carbonic anhydrases” (Journal of Enzyme Inhibition and Medicinal Chemistry, 2019).

Each structure is given as a SMILES string.

One data set deals with hCA I (Homo sapiens, UniProt P00915). The experiment in a line: Carbonic anhydrase inhibition assay, hCA I. The class given is biochemical. As to the method:
(§1) The purification of cytosolic CA isoenzymes (CA I and CA II) was previously described with a simple one-step method by a Sepharose-4B-L tyrosine-sulphanilamide affinity chromatography.
(§2) The protein quantity in the column effluents was determined spectrophotometrically at 280 nm. Sodium dodecyl sulphate polyacrylamide gel electrophoresis (SDS-PAGE) was applied with a Bio-Rad Mini Gel system Mini-PROTEINVR system (Hercules, CA), Bio-Rad Laboratories, Inc., China after purification of both CA isoenzymes. Briefly, it was performed in acrylamide for the running (10%) and the stacking gel (3%) contained SDS (0.1%), respectively. Activities of CA isoenzymes were determined according to a method by Verporte et al.[57]. The increase in absorbance of the reaction medium was spectrophotometrically recorded at 348 nm. Also, the quantity of protein was determined at 595 nm according to the Bradford method. Bovine serum albumin was used as standard protein. The IC50 values were obtained from activity (%) versus compounds plots. For calculation of KI values, three different concentrations were used. The Lineweaver–Burk curves were drawn and calculations were realised.

The next data set addresses hCA II (Homo sapiens, UniProt P00918). The experiment in a line: Carbonic anhydrase inhibition assay, hCA II. The class given is biochemical. The protocol: as §1, §2
Another data set has as its target hCA IX (Homo sapiens, UniProt Q16790). The experiment in a line: Carbonic anhydrase inhibition assay, hCA IX. In kind it is biochemical. The protocol: as §2
A further data set deals with hCA XII (Homo sapiens, UniProt O43570). The experiment in a line: Carbonic anhydrase inhibition assay, hCA XII. In kind it is biochemical. As to the method: as §2
Sequence of hCA XII (O43570 25-354): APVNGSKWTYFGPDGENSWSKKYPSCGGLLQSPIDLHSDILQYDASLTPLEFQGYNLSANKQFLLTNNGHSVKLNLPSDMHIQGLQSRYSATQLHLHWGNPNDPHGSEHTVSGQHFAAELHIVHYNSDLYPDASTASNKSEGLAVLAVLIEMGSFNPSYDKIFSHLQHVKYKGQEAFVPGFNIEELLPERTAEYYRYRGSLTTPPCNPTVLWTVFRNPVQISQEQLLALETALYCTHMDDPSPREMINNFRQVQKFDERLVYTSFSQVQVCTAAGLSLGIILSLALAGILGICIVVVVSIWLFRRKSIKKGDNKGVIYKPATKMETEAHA

Sequence of hCA I (P00915 whole entry): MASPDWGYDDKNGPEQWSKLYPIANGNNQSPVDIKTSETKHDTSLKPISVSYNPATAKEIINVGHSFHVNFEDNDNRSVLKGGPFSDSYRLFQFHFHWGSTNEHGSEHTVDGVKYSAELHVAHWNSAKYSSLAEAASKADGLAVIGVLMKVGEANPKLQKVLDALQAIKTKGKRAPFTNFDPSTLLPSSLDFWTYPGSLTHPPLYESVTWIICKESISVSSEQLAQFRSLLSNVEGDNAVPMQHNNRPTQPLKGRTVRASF

Take `Cn1c(-c2ccc(Cl)cc2)cs/c1=N\c1ccc(S(N)(=O)=O)cc1` [EMAC8002b]: the melting point lay within 241 to 242 °C.

For `Cn1c(-c2cccc([N+](=O)[O-])c2)cs/c1=N\c1ccc(S(N)(=O)=O)cc1` [EMAC8002d], the melting point was 235 to 236 °C.

Compound `Cn1c(-c2ccccc2)cs/c1=N\c1ccc(S(N)(=O)=O)cc1` [EMAC8002m] returned a melting point of 252 to 253 °C.

With `Cn1c(-c2ccc(F)cc2)cs/c1=N\c1ccc(S(N)(=O)=O)cc1` [EMAC8002c], the melting point was in the range of 230 to 233 °C.

Take `COc1ccc(-c2cs/c(=N\c3ccc(S(N)(=O)=O)cc3)n2C)cc1` [EMAC8002k]: the melting point is 243 to 244 °C.

`Cn1c(-c2ccc(Br)cc2)cs/c1=N\c1ccc(S(N)(=O)=O)cc1` [EMAC8002a] returned a melting point of 256 to 259 °C.

On to `Cc1ccc(-c2cs/c(=N\c3ccc(S(N)(=O)=O)cc3)n2C)cc1` [EMAC8002j], for which the melting point lay within 252 to 254 °C.

As for `Cn1c(-c2ccc(F)cc2F)cs/c1=N\c1ccc(S(N)(=O)=O)cc1` [EMAC8002g], the melting point lay within 239 to 240 °C.

In turn, `Cn1c(-c2ccc(Cl)cc2Cl)cs/c1=N\c1ccc(S(N)(=O)=O)cc1` [EMAC8002e] showed a melting point of 256 to 257 °C.

`Cn1c(-c2ccc([N+](=O)[O-])cc2)cs/c1=N\c1ccc(S(N)(=O)=O)cc1` [EMAC8002h] displayed a melting point of 244 to 245 °C.

As to `Cn1c(-c2ccc(C#N)cc2)cs/c1=N\c1ccc(S(N)(=O)=O)cc1` [EMAC8002f], the melting point was 237 to 238 °C.

For `Cn1c(-c2ccc(-c3ccccc3)cc2)csc1=Nc1ccc(S(N)(=O)=O)cc1` [EMAC8002i], the melting point lay within 254 to 255 °C. The affinity on hCA I, expressed as Ki, was 8910 nM. The compound also had a Ki at hCA II of 503 nM. The Ki on hCA IX is 1390 nM. Also, on hCA XII, the affinity corresponds to a Ki of 9.5 nM. The “selective index hCA II/hCA XII” value on hCA XII (ratio of Ki hCA II to Ki hCA XII) was “higher than 52”.

Broadly, the melting point is the temperature of the solid-liquid transition. One may read the Ki as a measure of affinity in units of concentration, obtained from inhibition or displacement.
